These results are taken from the OPERA property sets (Mansouri et al. 2018).

For orientation: logP means a log measure of how a compound divides between an organic and an aqueous phase. The low end stands for lower lipophilicity, the high end for higher lipophilicity.

`CC(C)NCC(O)COCc1ccccc1` (stereo not given) gave a logP of 1.62. `O=C(Cc1ccccc1)NCCNCC(O)COC1CCCc2ccccc21` (stereo not given) registered a log partition coefficient (logP) of 1.68. This logP and that of the compound before are within 0.2 log units of each other. With `CC(C)C(=O)NCCNCC(O)COc1ccccc1` (stereo not given) the figure was 1.14; with `O=C(Cc1ccccc1)NCCNCC(O)COCCCc1ccccc1` (stereo not given), 1.62; with `O=C(Cc1ccccc1)NCCNCC(O)COCC=Cc1ccccc1` (stereo not given), 1.76. The result for `CC(C)NCC(O)COCCCC(C)c1ccccc1` (stereo not given) reads 2.95. In turn, `O=C(Cc1ccccc1)NCCNCC(O)COCCOc1ccccc1` (stereo not given) displayed a logP of 0.75.

The compound `CC(C)C(=O)NCCNCC(O)COCc1ccccc1` (stereo not given) displayed a log partition coefficient (logP) of 0.63. This logP and that of the compound before are within 0.2 log units of each other. In turn, `CC(C)C(=O)NCCNCC(O)COCCc1ccccc1` (stereo not given) registered a logP of 0.95. For the compound `CC(C)(C)NCC(O)COC1CCCc2ccccc21` (stereo not given), the lipophilicity (logP) stood at 3.55. The result for `O=C(Cc1ccccc1)NCCNCC(O)COCCc1ccccc1` (stereo not given) reads 1.24.

With `CC(C)(C)NCC(O)COc1ccccc1` (stereo not given), the lipophilicity (logP) is 1.5. With `CC(C)C(=O)NCCNCC(O)COC1CCCc2ccccc21` (stereo not given) the figure was 1.99; with `CC(C)NCC(O)COCCOc1ccccc1` (stereo not given), 1.63. The compound `CC(C)NCC(O)COCCc1ccccc1` (stereo not given) returned a logP of 1.76. The logP values of the last two compounds are within 0.2 log units of each other.

For `CC(C)C(=O)NCCNCC(O)COCC=Cc1ccccc1` (stereo not given), the log partition coefficient (logP) turned out to be 0.51.

`CC(C)(C)NCC(O)COCCOc1ccccc1` (stereo not given): the logP turned out to be 2.35. Regarding `CC(C)C(=O)NCCNCC(O)COCCOc1ccccc1` (stereo not given), the lipophilicity (logP) came out at 0.48.

As for `CC(C)(C)NCC(O)COCc1ccccc1` (stereo not given), the logP turned out to be 1.7. With `O=C(Cc1ccccc1)NCCNCC(O)OCc1ccccc1` (stereo not given) the figure was 1.05; with `CC(C)C(=O)NCCNCC(O)COCCCc1ccccc1` (stereo not given), 1.25. On to `CC(C)(C)NCC(O)COCCc1ccccc1` (stereo not given), for which the logP amounted to 2.52. The compound `O=C(Cc1ccccc1)NCCNCC(O)COc1ccccc1` (stereo not given) had a logP of 0.63. For `CC(C)(C)NCC(O)COCC=Cc1ccccc1` (stereo not given), the log partition coefficient (logP) turned out to be 2.29. Take `CC(C)NCC(O)COCC=Cc1ccccc1` (stereo not given): the logP was 2.15.
